Assay results published in paper PMC4307180, “Overcoming myelosuppression due to synthetic lethal toxicity for FLT3-targeted acute myeloid leukemia therapy” (eLife, 2014).

What was measured:
HMC1.1 cells (KIT V560G) = settings: proliferation, Figure 2A and reference values; ref de Jong and Zon, 2005; Guo et al., 2007; Kampa-Shittenhelm et al., 2013; cited from earlier work
purified FLT3 WT = target: T1, purified FLT3 WT (Homo sapiens, UniProt P36888); assay: Radiolabeled purified kinase assay (Figure 1B)
T1 sequence (P36888 27-993): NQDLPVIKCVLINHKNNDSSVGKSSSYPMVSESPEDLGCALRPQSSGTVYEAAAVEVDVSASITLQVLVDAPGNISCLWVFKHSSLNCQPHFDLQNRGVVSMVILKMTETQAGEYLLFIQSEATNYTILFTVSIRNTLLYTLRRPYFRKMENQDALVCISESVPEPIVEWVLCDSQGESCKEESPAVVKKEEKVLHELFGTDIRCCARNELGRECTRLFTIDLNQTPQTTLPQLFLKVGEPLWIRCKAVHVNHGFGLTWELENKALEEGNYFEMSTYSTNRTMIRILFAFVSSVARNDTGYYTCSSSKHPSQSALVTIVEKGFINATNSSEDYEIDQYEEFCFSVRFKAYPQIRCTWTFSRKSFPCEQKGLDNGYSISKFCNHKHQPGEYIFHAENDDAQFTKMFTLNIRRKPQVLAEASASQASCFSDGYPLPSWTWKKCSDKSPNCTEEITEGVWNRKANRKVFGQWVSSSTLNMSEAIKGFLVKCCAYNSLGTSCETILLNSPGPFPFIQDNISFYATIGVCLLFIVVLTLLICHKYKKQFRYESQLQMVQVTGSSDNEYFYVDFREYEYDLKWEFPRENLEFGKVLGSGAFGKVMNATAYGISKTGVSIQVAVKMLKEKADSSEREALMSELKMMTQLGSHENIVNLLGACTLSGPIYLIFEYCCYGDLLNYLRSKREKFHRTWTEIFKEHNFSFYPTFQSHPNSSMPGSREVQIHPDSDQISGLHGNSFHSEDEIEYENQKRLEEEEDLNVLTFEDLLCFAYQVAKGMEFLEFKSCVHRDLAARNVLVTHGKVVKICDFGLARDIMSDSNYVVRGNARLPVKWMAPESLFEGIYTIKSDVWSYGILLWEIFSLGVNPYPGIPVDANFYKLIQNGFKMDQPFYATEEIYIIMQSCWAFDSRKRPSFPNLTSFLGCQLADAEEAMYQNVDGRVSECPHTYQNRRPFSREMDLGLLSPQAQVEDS

KIT = KIT (Homo sapiens, UniProt P10721); assay: Reaction Biology Corp kinase assay at Km-ATP (Figure 1C), KIT
FLT3 = target: T2, FLT3 (Homo sapiens, UniProt P36888); assay: Reaction Biology Corp kinase assay at Km-ATP (Figure 1C), FLT3
T2 sequence (P36888 27-993): T1 sequence (P36888 27-993)

PDGFRβ = PDGFRβ (Homo sapiens, UniProt P09619); assay: Reaction Biology Corp kinase assay at Km-ATP (Figure 1C), PDGFRβ
CSF1R = CSF1R (Homo sapiens, UniProt P07333); assay: Reaction Biology Corp kinase assay at Km-ATP (Figure 1C), CSF1R
PDGFRα = PDGFRα (Homo sapiens, UniProt P16234); assay: Reaction Biology Corp kinase assay at Km-ATP (Figure 1C), PDGFRα
PDGFRα, sequence (P16234 24-1089): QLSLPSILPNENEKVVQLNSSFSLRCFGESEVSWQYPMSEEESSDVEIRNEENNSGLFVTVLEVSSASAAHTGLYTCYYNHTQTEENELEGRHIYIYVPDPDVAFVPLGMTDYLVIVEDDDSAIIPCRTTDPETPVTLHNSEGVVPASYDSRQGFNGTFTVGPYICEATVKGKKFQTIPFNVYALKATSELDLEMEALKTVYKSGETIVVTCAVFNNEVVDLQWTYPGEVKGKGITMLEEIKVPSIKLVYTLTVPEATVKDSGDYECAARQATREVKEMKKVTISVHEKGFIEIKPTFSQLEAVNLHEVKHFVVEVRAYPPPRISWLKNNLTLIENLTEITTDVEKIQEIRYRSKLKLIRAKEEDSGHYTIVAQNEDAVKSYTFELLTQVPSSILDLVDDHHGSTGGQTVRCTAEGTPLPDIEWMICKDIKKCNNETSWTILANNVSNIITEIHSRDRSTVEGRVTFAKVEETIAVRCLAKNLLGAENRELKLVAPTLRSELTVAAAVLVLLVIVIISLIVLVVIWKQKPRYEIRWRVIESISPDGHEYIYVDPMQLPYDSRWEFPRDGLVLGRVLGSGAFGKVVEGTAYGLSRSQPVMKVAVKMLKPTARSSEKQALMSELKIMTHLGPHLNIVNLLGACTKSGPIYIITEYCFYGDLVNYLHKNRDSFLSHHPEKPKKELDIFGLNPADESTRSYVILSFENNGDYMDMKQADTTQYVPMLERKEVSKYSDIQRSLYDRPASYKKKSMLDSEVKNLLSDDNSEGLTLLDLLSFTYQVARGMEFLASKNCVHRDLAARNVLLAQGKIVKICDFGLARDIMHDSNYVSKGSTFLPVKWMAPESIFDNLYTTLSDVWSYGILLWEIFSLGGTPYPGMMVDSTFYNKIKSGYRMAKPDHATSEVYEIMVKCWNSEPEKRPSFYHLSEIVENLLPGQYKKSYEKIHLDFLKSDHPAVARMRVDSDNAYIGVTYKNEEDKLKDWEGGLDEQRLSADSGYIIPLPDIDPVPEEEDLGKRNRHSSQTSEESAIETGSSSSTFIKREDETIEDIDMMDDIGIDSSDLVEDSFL

KIT, sequence (P10721 26-976): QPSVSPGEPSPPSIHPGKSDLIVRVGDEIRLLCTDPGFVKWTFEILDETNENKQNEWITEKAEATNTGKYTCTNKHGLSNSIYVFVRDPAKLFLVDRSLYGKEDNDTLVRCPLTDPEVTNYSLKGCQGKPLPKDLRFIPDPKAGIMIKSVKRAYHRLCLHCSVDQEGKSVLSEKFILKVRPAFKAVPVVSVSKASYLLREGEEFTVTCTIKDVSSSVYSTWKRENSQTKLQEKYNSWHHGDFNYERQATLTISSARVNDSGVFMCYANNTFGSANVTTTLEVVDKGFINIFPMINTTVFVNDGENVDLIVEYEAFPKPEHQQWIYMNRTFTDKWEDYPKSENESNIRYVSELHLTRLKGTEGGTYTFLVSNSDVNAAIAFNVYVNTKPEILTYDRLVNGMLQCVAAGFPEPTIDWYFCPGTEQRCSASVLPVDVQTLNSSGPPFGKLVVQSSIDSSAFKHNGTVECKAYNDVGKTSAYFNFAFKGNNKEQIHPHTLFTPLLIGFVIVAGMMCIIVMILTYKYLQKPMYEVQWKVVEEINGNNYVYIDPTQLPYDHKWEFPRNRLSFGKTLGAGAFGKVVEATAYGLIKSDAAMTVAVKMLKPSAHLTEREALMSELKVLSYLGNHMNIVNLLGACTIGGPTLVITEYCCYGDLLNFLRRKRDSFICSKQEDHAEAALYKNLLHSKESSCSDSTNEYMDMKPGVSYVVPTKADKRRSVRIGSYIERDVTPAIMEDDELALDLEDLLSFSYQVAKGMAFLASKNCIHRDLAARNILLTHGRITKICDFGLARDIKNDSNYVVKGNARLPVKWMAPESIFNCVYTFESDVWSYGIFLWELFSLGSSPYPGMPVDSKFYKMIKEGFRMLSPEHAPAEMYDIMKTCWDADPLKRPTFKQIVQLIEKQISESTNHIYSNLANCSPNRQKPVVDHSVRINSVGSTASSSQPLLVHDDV
PDGFRβ, sequence (P09619 33-1106): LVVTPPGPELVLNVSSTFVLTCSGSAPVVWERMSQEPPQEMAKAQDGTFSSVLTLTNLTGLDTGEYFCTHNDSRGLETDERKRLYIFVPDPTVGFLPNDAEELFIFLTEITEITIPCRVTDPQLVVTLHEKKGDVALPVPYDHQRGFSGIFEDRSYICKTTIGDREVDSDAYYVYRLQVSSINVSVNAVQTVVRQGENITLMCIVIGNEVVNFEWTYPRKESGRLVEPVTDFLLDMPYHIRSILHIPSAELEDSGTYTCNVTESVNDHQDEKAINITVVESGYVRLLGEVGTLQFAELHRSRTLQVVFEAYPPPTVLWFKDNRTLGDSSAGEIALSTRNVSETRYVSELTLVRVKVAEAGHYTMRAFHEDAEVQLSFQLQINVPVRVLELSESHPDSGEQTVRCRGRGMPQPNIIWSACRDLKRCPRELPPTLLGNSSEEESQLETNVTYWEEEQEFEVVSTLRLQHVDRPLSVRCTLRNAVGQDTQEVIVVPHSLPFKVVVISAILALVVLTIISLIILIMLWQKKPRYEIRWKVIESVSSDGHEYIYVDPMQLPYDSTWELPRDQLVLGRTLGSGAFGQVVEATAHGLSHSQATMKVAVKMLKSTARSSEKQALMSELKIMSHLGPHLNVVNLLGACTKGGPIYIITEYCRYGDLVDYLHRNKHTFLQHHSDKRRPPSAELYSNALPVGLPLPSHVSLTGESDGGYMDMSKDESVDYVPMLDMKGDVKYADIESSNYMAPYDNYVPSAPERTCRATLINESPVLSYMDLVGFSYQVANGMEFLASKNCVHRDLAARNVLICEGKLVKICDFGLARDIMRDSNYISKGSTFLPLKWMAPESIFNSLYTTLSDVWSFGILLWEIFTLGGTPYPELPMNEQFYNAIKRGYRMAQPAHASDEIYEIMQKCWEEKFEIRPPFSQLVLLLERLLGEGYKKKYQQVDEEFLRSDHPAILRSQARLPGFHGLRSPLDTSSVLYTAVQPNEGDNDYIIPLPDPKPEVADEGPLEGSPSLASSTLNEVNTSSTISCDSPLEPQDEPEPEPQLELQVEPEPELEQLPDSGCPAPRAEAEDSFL
CSF1R, sequence (P07333 20-972): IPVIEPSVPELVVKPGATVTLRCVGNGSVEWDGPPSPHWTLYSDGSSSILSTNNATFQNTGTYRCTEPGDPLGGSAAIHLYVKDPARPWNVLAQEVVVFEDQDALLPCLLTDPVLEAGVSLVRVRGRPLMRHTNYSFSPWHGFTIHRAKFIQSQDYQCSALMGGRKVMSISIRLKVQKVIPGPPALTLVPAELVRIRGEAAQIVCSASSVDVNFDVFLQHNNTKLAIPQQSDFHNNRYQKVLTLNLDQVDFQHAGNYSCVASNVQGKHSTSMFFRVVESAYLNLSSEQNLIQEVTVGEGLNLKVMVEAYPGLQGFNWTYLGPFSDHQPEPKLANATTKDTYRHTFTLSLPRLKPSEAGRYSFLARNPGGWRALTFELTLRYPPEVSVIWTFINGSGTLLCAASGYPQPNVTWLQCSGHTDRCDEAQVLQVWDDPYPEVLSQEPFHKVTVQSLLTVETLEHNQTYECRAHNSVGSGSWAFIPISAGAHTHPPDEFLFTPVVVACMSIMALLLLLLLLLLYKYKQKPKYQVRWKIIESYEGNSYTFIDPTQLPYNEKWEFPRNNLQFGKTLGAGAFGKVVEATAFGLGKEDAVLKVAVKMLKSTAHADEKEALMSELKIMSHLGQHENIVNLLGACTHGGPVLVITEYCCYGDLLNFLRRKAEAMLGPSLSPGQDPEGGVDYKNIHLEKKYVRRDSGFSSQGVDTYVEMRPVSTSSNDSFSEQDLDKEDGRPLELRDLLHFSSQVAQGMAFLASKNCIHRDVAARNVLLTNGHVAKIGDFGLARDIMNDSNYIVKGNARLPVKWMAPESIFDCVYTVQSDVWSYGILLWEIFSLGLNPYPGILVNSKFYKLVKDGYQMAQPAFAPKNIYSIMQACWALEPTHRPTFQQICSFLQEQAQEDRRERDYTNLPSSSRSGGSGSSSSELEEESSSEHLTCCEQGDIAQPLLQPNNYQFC

Cc1ccc(C(=O)Nc2ccc(CN3CCN(C)CC3)c(C(F)(F)F)c2)cc1C#Cc1cnc2cccnn12 [Ponatinib]
inhibition of FLT3- versus KIT-driven cell lines (HMC1.1 cells (KIT V560G)): equipotent inhibition of FLT3 and KIT-driven cell lines

CNC(=O)c1cc(Oc2ccc(NC(=O)Nc3ccc(Cl)c(C(F)(F)F)c3)cc2)ccn1 [Sorafenib]
inhibition of FLT3- versus KIT-driven cell lines (HMC1.1 cells (KIT V560G)): equipotent inhibition of FLT3 and KIT-driven cell lines

CC(C)C[C@@H]1NC(=O)c2c1c1c3ccccc3[nH]c1c1[nH]c3ccccc3c21 [Star 1]
IC50 (purified FLT3 WT): > 10000 nM

CCC[C@@H]1NC(=O)c2c1c1c3ccccc3[nH]c1c1[nH]c3ccccc3c21 [Star 3]
IC50 (purified FLT3 WT): > 10000 nM

CCCC[C@@H]1NC(=O)c2c1c1c3ccccc3[nH]c1c1[nH]c3ccccc3c21 [Star 4]
IC50 (purified FLT3 WT): > 10000 nM

CC(C)[C@@H]1NC(=O)c2c1c1c3ccccc3[nH]c1c1[nH]c3ccccc3c21 [Star 6]
IC50 (purified FLT3 WT): 2000 nM

CC(C)(C)[C@@H]1NC(=O)c2c1c1c3ccccc3[nH]c1c1[nH]c3ccccc3c21 [Star 7]
IC50 (purified FLT3 WT): > 10000 nM

CC[C@@H]1NC(=O)c2c1c1c3ccccc3[nH]c1c1[nH]c3ccccc3c21 [Star 8]
IC50 (purified FLT3 WT): 2000 nM

C#CC[C@@H]1NC(=O)c2c1c1c3ccccc3[nH]c1c1[nH]c3ccccc3c21 [Star 9]
IC50 (purified FLT3 WT): > 10000 nM

C[C@@H]1NC(=O)c2c1c1c3ccccc3[nH]c1c1[nH]c3ccccc3c21 [Star 22]
IC50 (purified FLT3 WT): 193 ± 28 nM

C[C@@H]1NC(=O)c2c1c1c3ccccc3n(CCCCN)c1c1[nH]c3ccccc3c21 [Star 23]
IC50 (KIT): 6550 nM
KIT/FLT3 IC50 ratio (KIT; ratio of Figure 1C IC50s): 728
IC50 (FLT3): 9 ± 1 nM
IC50 (PDGFRβ): 2800 nM
IC50 (CSF1R): > 10000 nM
IC50 (purified FLT3 WT): 10 ± 4 nM
IC50 (PDGFRα): 2000 nM

C[C@@H]1NC(=O)c2c1c1c3ccccc3[nH]c1c1c2c2ccccc2n1CCCN [Star 27-iso]
IC50 (purified FLT3 WT): 15 ± 7 nM
